Molecules are shown by their SMILES.

The subject of assay [1] is truncated MYB ("MYBtr"). The experiment in a line: Quantity of protein after treatment with DUB inhibitor. In kind it is cell-based, human. The conditions noted are these: after treatment with PR619; FIG. 45. From the text:
(§1) FIG. 45 is a graph showing the quantity of truncated MYB or MYB-QKI fusion protein after the treatment with PR619.
(§2) Another possible approach of suppressing cells expressing truncated MYB or MYB-QKI is reducing the amount of the truncated MYB or MYB-QKI protein, for example, by increasing the degradation of this protein. DUBs remove ubiquitination and thereby increase the half-life of proteins. Thus, DUB inhibitors may accelerate the degradation of truncated MYB or MYB-QKI.
(§3) Cells were lysed and subjected to SDS-PAGE gradient gels as previously described3l. Blots were probed with antibodies against MYB (ab45150, Abcam at 1:500 dilution), QKI (A300-183A, Bethyl Laboratories at 1:1,000 dilution) and actin (sc-1615, Santa Cruz Biotechnology at 1:2,000 dilution).

Assay [2] concerns MYB-QKI6 (short variant) fusion protein. The assay is described as above. The conditions noted are these: after treatment with PR619; FIG. 45. In kind it is cell-based, human.
Source text: as §1, §2, §3

The subject of assay [3] is MYB-QKI5 (short variant) fusion protein. The assay is described as above. The conditions noted are these: after treatment with PR619; FIG. 45. It is filed as cell-based, human.
Source text: as §1, §2, §3

Assay [4] relates to mouse neural stem cells engineered to express MYB-QKI6 (short variant). The experiment in a line: Percentage viability of mouse neural stem cells after increased doses of inhibitor. The conditions noted are these: mNSCs expressing MYB-QKI6 (short variant); doses 0, 0.05, 0.1, 0.3, 0.5, 1 μM; in comparison with GFP-expressing mNSCs; FIG. 42D. It is filed as cell-based. The procedure:
(§4) FIGS. 42A-D are a set of graphs showing percentage viability of mouse neural stem cells expressing GFP (FIG. 42A), truncated MYB (FIG. 42B), MYB-QKI5 (short variant) (FIG. 42C), and MYB-QKI6 (short variant) (FIG. 42D) after the treatment of increased doses (0, 0.05, 0.1, 0.3, 0.5, and 1 μM) of JQ1, THZ1 (“CDK7i”), and DMSO as negative control.
(§5) FIG. 44 is a graph showing the percentage viability of mouse neural stem cells expressing GFP (“GFP”), truncated MYB (“MYBtr”), MYB-QKI5 (short variant) (“MYBQKI5”), and MYB-QKI6 (short variant) (“MYBQKI6”) after the treatment of increased doses (0, 0.05, 0.1, 0.3, 0.5, and 1 μM) of dasatinib or DMSO as negative control.
(§6) Modifiers of the MYB pathway and key upstream and downstream effectors were examined for their ability to inhibit growth and induce death of cells expressing MYB-QKI fusion protein. […] Thus, cells expressing truncated MYB or MYB-QKI were specifically sensitive to inhibition of BET by JQ1.
(§7) 1,000 cells/well were plated in 96-well plates, with five replicates. Cell viability was measured by assessing ATP content using CellTiter-Glo (Promega). Means±s.e.m. were calculated.

Assay [5] relates to mouse neural stem cells engineered to express MYB-QKI5 (short variant). The description is as above. It is filed as cell-based. The conditions noted are these: mNSCs expressing MYB-QKI5 (short variant); doses 0, 0.05, 0.1, 0.3, 0.5, 1 μM; in comparison with GFP-expressing mNSCs; FIG. 42C. Here is the method:
as §4, §5, §6, §7

The subject of assay [6] is mouse neural stem cells engineered to express truncated MYB. Described as above. In kind it is cell-based. The conditions noted are these: mNSCs expressing truncated MYB; doses 0, 0.05, 0.1, 0.3, 0.5, 1 μM; in comparison with GFP-expressing mNSCs; FIG. 42B. The procedure: as §4, §5, §6, §7
In assay [7] the test system is mouse neural stem cells engineered to express MYB-QKI6 (short variant). Nature of the assay: Cell growth of mouse neural stem cells over a time course. In kind it is cell-based. The conditions noted are these: mNSCs expressing MYB-QKI6 (short variant); 0.5 μM or 1 μM; 0, 1, 3, 5 days; in comparison with GFP-expressing mNSCs; FIG. 43D. Here is the method:
(§8) FIGS. 43A-D are a set of graphs showing cell growth of mouse neural stem cells expressing GFP (FIG. 43A), truncated MYB (FIG. 43B), MYB-QKI5 (short variant) (FIG. 43C), and MYB-QKI6 (short variant) (FIG. 43D) over a time course (0, 1, 3, and 5 days) in the presence of 0.5 μM or 1 μM of LY2835219 (“CDK4/6 inhibitor”).
(§9) Inhibition of CDK7 was also examined using a specific CDK7 inhibitor THZ1. […] Thus, cells expressing MYB-QKI were sensitive to inhibition of CDK7 by THZ1. This effect is specific with CDK7. […] Thus, cells expressing truncated MYB or MYB-QKI were specifically sensitive to inhibition of CDK7 by THZ1.
as §7

In assay [8] the test system is mouse neural stem cells engineered to express MYB-QKI5 (short variant). Described as above. The conditions noted are these: mNSCs expressing MYB-QKI5 (short variant); 0.5 μM or 1 μM; 0, 1, 3, 5 days; in comparison with GFP-expressing mNSCs; FIG. 43C. It is filed as cell-based. The procedure:
as §8, §9, §7

Assay [9] deals with mouse neural stem cells engineered to express truncated MYB. The assay is described as above. It is filed as cell-based. The conditions noted are these: mNSCs expressing truncated MYB; 0.5 μM or 1 μM; 0, 1, 3, 5 days; in comparison with GFP-expressing mNSCs; FIG. 43B. Here is the method:
as §8, §9, §7

Consider `N#CSc1cc(SC#N)c(N)nc1N` [PR619], for which, in assay [1], the “amount of truncated MYB protein” value is recorded as “reduced the amount”. For the same compound, the “amount of MYB-QKI6 (short variant) protein” value in [2] is recorded as “reduced the amount”. In assay [3], the “amount of MYB-QKI5 (short variant) protein” value is “reduced the amount”.

For the compound `CN(C)C/C=C/C(=O)Nc1ccc(C(=O)Nc2cccc(Nc3ncc(Cl)c(-c4c[nH]c5ccccc45)n3)c2)cc1` [THZ1], the viability of cells result in [4], in assay [5] and in assay [6] was “significantly compromised the viability” each time.

In the case of `Cc1sc2c(c1C)C(c1ccc(Cl)cc1)=N[C@@H](CC(=O)OC(C)(C)C)c1nnc(C)n1-2` [JQ1], the viability of cells entry in [4], in assay [5] and in assay [6] was “significantly compromised the viability” in each case.

Consider `CCN1CCN(Cc2ccc(Nc3ncc(F)c(-c4cc(F)c5nc(C)n(C(C)C)c5c4)n3)nc2)CC1` [LY2835219], for which the cell growth result in [7], in [8] and in assay [9] was “did not strongly inhibit the growth” in each case.

Values taken from US20190062846A1, “COMPOSITIONS AND METHODS FOR SCREENING PEDIATRIC GLIOMAS AND METHODS OF TREATMENT THEREOF” (DANA-FARBER CANCER INSTITUTE, INC., priority 2016, published 2019).
